Data: patent EP0532027B1, “Cyclic nitrones, their preparation and pharmaceutical compositions containing them” (MERRELL PHARMACEUTICALS INC., priority 1991, dated 1993)

What was measured:
[1] = system: animal models of circulatory shock; details: literature (Hamburger & McCay; Novelli et al.); cited from earlier work
[2] = system: gerbils; details: literature (Floyd; Oliver et al; Phillis et al); versus control animals; cited from earlier work
[3] = system: myocardial tissues; details: literature (Bolli et al); cited from earlier work
[4] = system: INTERLEUKIN-1 RELEASE BY HUMAN MACROPHAGES; assay: Inhibition of interleukin-1 release by endotoxin-stimulated human macrophages (ELISA); type: cell-based; details: Macrophage, two million macrophages stimulated with 20 nanograms endotoxin for 24 hours, IL-1 in supernatant
Source text: These include arthritis, psoriasis, athersclerosis, and diabetes. […] One such in-vitro assay is based upon the fact that when human macrophages are exposed to endotoxin, the macrophages secrete IL-1.
The in-vitro studies of IL-1 production was facilitated by a specific property of macrophages, i. e. attachment to non-self, e.g. plastic surface. In this assay, human peripheral blood monocyte-derived macrophages were enriched by plastic adherence. Two million of these macrophages were stimulated with 20 nanograms of endotoxin for 24 hours. Culture supernatants were then collected and the levels of IL-1 were assayed by enzyme-linked immuno-sorbent assay (ELISA). The same assay was repeated except that it was done in the presence of the test compound. The assay was repeated until an IC50 was calculated.

[5] = system: ENDOTOXIN TREATED RATS; assay: Animal model of septic shock: survival of endotoxin treated rats; type: in vivo, Male Sprague Dawley rats; details: 72 hours after endotoxin
Description: In this test rats were injected with endotoxin and a control survival rate was determined. Other groups of rats were pretreated with one of the compounds of Formula I at varied dosages and then administered endotoxin and the survival rates were compared. This test was conducted in the following manner. Male Sprague Dawley rats were utilized (weight 215g-300g) in each test group. Endotoxin (30mg/kg) was administered intraperitoneally (IP). A test compound or vehicle was administered IP 30 minutes prior to endotoxin administration. The following results were obtained: TABLE III

[6] = system: gerbils; assay: Gerbil model of stroke (cerebral ischemia/reperfusion); type: in vivo; details: for locomotor activity of ischemic gerbils: pretreated 30 minutes prior to ischemic event, Figure III; for protective effect in gerbil model: 32 mg/kg, Figure V
Source text: One of the primary therapeutic uses of pharmaceutical compositions containing these compounds will be in the treatment of stroke. Strokes are associated with cerebral ischemia. Initially, it was thought that the CNS damage that often accompanies a stroke was a direct result of the tissues being deprived of oxygen. Recent research has shown that most of the damage occurs when the tissues are reoxygenated during reperfusion. […] Gastroenterology, 82, 9-15 (1982). Oliver et al has shown that a significant amount of this damage occurs due to free oxygen radicals and the oxidation sequence which they initiate, Proc. Natl. Acad. Sci. USA, vol. 87, pp 5144-5147 July 1990. […] In this model the carotid arteries of gerbils are constricted surgically and after a predetermined period, the constriction is removed so that surrounding tissues may be reperfused. CNS damage, which occurs upon reperfusion, can be measured by the level of protein oxidation that occurs in the brain or by examining the gerbil's behavior. […] Oliver et al and Phillis et al have also shown similar results with PBN, supra and Neuroscience Letter, 116 (1990) 315-319.
The compound, 3,4-dihydro-3,3-dimethylisoquinoline N-oxide which was the product of Example I (hereinafter compound) was tested in a gerbil model as described above. The exact procedure utilized is described by Chandler et al. in Journal of Pharmacological Methods Vol. 14, pages 137-146 (1985). Figures I-V summarize the results that were obtained.
Figure I depicts the effect the compound had on the motor activity of non-ischemic gerbils.
Figure II depicts the effects that ischemia has upon the gerbils locomotor activity.
The gerbils were pretreated with the compound 30 minutes prior to initiation of the ischemic event.
Figure IV compares the neuronal loss of ischemic gerbils receiving various doses of compound with both control gerbils and non-ischemic gerbils.
All compounds were administered at 32 mg/kg. […] Compound A represents the product of Example I, F = Example III, and G = Example II.

[7] = system: Interleukin-1; assay: Blood levels of interleukin-1 in endotoxin-treated mice (ELISA); type: in vivo, male Charles-Dawley mice; details: mice given endotoxin and test compound, endotoxin alone 58.3, vehicle without endotoxin 29.2
Description: Normal 7 week old male Charles-Dawley mice were utilized in the assay. The mice were injected with vehicle and a baseline blood level of IL-1 was established by an IL-1 specific ELISA ninety (90) minutes after administration. The animals were then administered both endotoxin and vehicle and a blood level of IL-1 was determined. Finally the animals were administered endotoxin and the test compound and the effect upon IL-1 blood levels was determined.

[8] = Inhibition of oxidation of soy PC liposome by Fe2+/histidine-Fe3+ (thiobarbituric acid readout); type: biochemical; details: histidine/Fe3+ 250:50uM, initiated with 50 uM Fe2+; 15 minutes, 37°C
[9] = Inhibition of oxidation of soy PC liposome initiated with hydrogen peroxide and Fe2+ (thiobarbituric acid readout); type: biochemical; details: amount required to inhibit 100% of oxidation of soy liposome over 15 minutes; 50uM H2O2, 50uM Fe2+, 37°C, pH 7.0
Source text: One such assay is based upon the fact that the lipid, soybean phosphatidylcholine, readily undergoes oxidation. This oxidation may be initiated by a variety of oxidizing agents such as Fe^2+ and H2O2, or 2,2'-azobis-(2-amidinopropane). A spin trapping agent will decrease the rate at which the lipid undergoes oxidation in this assay. This assay is described in detail in: a) Nilsson, U.A., Olsson, L-I, Carlin, G. and Bylund-Fellenius, A-C. (1989) Inhibition of lipid peroxidation by spin labels. Relationships between structure and function. J. Biol. Chem. 264:11131-11135; and b) Aust, S.D. (1985). Lipid peroxidation. In Handbook of Methods for Oxygen Radical Research. (Greenwald, R.A., ed.) CRC Press, Inc. Boca Raton, Florida, pp. 203-207.
Soybean phosphatidylcholine (PC) was obtained from commercial suppliers such as Sigma or Avanti Polar Lipids. The soy PC was dissolved in ethanol achieving a final concentration of 0.563mM. […]
The ability of a compound to inhibit oxidation of the soy PC liposome was evaluated in the following manner. […]
The samples were heated at 100°C for 20 minutes, cooled and centrifuged. The absorbance of the resulting supernatant was determined at 532-580nm. Quantitation of the thiobarbituric acid/oxidized PC complex was determined by comparison to a standard curve of malondialdehyde equivalents generated by acid catalysed hydrolysis of 1,1,3,3-tetraethoxypropane. […]

[10] = dose 3 mg/kg IP 30 minutes prior to endotoxin (30mg/kg IP)
[11] = dose 10 mg/kg IP 30 minutes prior to endotoxin (30mg/kg IP)
[12] = dose 30 mg/kg IP 30 minutes prior to endotoxin (30mg/kg IP)

SMILES | survival in animal models of circulatory shock [1] | CNS damage in gerbil model of stroke [2] | myocardial dysfunction occurring after reperfusion [3] | IC50 [4] [µM] | % Surviving [5, 10] [%] | Survival Rate [5, 10] | % Surviving [5, 11] [%] | Survival Rate [5, 11] | % Surviving [5, 12] [%] | Survival Rate [5, 12] | locomotor activity of ischemic gerbils ([6]; 30mg/kg) | protective effect in gerbil model [6] | locomotor activity of ischemic gerbils ([6]; 100mg/kg) | locomotor activity of non-ischemic gerbils ([6]; non-ischemic gerbils, Figure I) | neuronal loss of ischemic gerbils ([6]; various doses, versus control and non-ischemic gerbils, Figure IV) | IL-1 (picrogram/ml-serum) [7] [picrogram/ml-serum] | IC100 Required to prevent Oxidation of Soybean Phosphatidylcholne by Fe^+2/histidine-Fe^3+ [8] [mM] | IC100 Required to prevent Oxidation of Soybean Phosphatidylcholne by Fe^+2/H202 [9] [mM]
CC(C)(C)[N+]([O-])=Cc1ccccc1 [PBN, α-phenyl N-tert-butyl nitrone] | significantly increase survival | less CNS damage | decreases the amount of myocardial dysfunction | – | – | – | – | – | – | – | – | – | – | – | – | – | – | –
CC1(C)Cc2ccccc2C=[N+]1[O-] [Example I, 3,4-Dihydro-3,3-dimethylisoquinoline N-oxide] | – | – | – | 330 | 33 | 4/12 | 58 | 7/12 | 83 | 10/12 | significantly decreased | protective effect | significantly decreased | no effect | saved significant amounts of neuronal tissue | 6.4 | – | –
[O-][N+]1=Cc2ccccc2CC12CCCCC2 [Example II, Sprio [cyclohexane-1,3']-3,4-dihydroisoquinoline-N-oxide] | – | – | – | 200 | 30 | 3/10 | 91 | 19/23 | – | – | – | protective effect | – | – | – | 4.7 | 0.3 | 0.1
[O-][N+]1=Cc2ccccc2CC12CCCC2 [Example III, Spiro [cyclopentane-1,3']-[1H]dihydroisoquinoline 2-oxide] | – | – | – | 100 | – | – | 17 | 2/12 | 91 | 10/11 | – | protective effect | – | – | – | 10.2 | 0.7 | 0.3
